Assay results as given in patent US12668646B2, “Cross-linking compounds and methods of use thereof” (North Carolina State University, priority 2019, dated 2026).
Values joined by “and” are separate entries in the source; they are usually repeats but may differ in a detail not shown here. Identical values can stand only once.

Legend:
[1] = test system: β-glucosidase from almonds; assay: Indigogenic reaction with β-glucosidase from almonds; assay type: biochemical
[2] = target: T1, β-glucosidase from Agrobacterium (Agrobacterium sp., UniProt P12614); assay: Indigogenic reaction with β-glucosidase from Agrobacterium; assay type: biochemical; conditions: for Yield of indigoid dye: 33 100 μM, enzyme 200 nM; for Yield (%) β-glucosidase from Agrobacterium: as E4 but ϵ = 2.6 × 10^4 M^−1 cm^−1 measured for 43
T1 construct: purchased Megazyme
T1 sequence (P12614 1-459): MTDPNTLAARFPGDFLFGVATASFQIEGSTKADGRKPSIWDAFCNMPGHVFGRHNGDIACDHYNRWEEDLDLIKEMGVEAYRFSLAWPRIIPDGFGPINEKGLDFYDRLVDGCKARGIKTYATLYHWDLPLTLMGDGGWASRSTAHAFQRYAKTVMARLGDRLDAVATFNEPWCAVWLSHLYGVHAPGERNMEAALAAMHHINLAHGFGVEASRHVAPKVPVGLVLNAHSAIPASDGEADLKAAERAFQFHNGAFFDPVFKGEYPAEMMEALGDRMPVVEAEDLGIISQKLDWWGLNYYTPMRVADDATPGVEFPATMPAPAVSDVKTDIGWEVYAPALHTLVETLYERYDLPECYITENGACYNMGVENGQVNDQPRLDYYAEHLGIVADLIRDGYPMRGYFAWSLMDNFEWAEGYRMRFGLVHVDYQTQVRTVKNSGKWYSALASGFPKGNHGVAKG
Method: Next, the β-glucosidase from Agrobacterium sp. was investigated as the trigger enzyme for indigoid dye formation. […] The reaction was carried out using the enzyme (200 nM) and indoxyl-glucoside 33 (100 μM) in phosphate buffer (pH 4-9, containing 2% DMF) at 37° C. […] Note that with 200 nM enzyme and 100 μM substrate, complete reaction requires 500 turnovers of each enzyme.
Reactions with β-glucosidase from Agrobacterium. An indoxyl compound in DMF (2 μL, 5 mM) and β-glucosidase from Agrobacterium in 10 mM phosphate buffer [2 μL, 10 μM, pH 7.0, containing 50 mM NaCl and 0.6 M (NH4)2SO4] were mixed with 50 mM phosphate buffer (96 μL, pH 7.0). The reaction mixture was incubated at 37° C. for 2 h and then centrifuged for 3 min. Any precipitate was separated from the supernatant and dissolved in DMF (200 μL). The resulting solution was analyzed by absorption spectroscopy. The experiment was repeated three times.

rat liver homogenate = assay: Indigoid-dye formation in rat liver homogenate; assay type: biochemical; conditions: as E7 but ϵ = 2.6 × 10^4 M^−1 cm^−1 measured for 43
Method: Finally, indigoid-dye formation was carried out in rat liver homogenate (Table 1, rightmost column).
Reactions in rat liver homogenate. An indoxyl compound in DMF (5 μL, 20 mM) was mixed with rat liver homogenate (95 μL). The reaction mixture was incubated at 37° C. for 24 h. After allowing to cool to room temperature, the reaction mixture was diluted with DMF (900 μL). The mixture was heated at 70° C. for 2 min and then centrifuged for 2 min. The supernatant was separated from any precipitate. This extraction procedure was repeated two or three times with DMF (100-500 μL). The combined supernatant (1500-1800 μL) was analyzed by absorption spectroscopy.

[3] = target: T2, β-glucosidase from Agrobacterium plus rat liver homogenate (Agrobacterium sp., UniProt P12614); assay: Reaction with β-glucosidase from Agrobacterium in rat liver homogenate; assay type: biochemical; conditions: 33 100 μM, enzyme 200 nM, 2% DMF, 37° C., 4 h; ϵ = 2.6 × 10^4 M^−1 cm^−1
T2 construct: purchased Megazyme
T2 sequence (P12614 1-459): T1 sequence (P12614 1-459)
Method: Finally, indigoid-dye formation was carried out in rat liver homogenate (Table 1, rightmost column). Good yields were obtained in the case of 42 (65%, entry 4) and 27 (50%, entry 13). […] However, when β-glucosidase from Agrobacterium (200 nM) was present in rat liver homogenate, the indigoid dye was obtained in 81% yield (entry 15).
Reaction of 33 with β-glucosidase from Agrobacterium in rat liver homogenate. A DMF solution of 33 (2 μL, 5 mM) and β-glucosidase from Agrobacterium in 10 mM phosphate buffer [2 μL, 10 μM, pH 7.0, containing 50 mM NaCl and 0.6 M (NH4)2SO4] were mixed with rat liver homogenate (96 μL). The reaction mixture was incubated at 37° C. for 4 h and then centrifuged for 3 min. Any precipitate was separated from the supernatant and then suspended in DMF (200 μL). The suspension was centrifuged for 3 min. The supernatant was analyzed by absorption spectroscopy.

[4] = Solubility in aqueous buffer; assay type: physicochemical; conditions: 100 mM phosphate buffer (pH 7.4, containing 100 mM NaCl), room temperature
Source text: Water solubility of the indoxyl glucoside is important for biological applications. […] Therefore, this compound is not suitable for bioconjugation. The synthesis of 34 relies on successive substitution of the dichloroanilinotriazine unit (derived from N,N-bis(2-methoxyethyl)aniline^31 and cyanuric chloride) with indoxyl-glucoside-PEG-OH and BCN-PEG-NH2 building blocks.
To improve the water solubility of the indoxyl species, a sulfobetaine unit^32,33 was incorporated as a water-solubilizing group. Sulfobetaines are stable zwitterions over a wide range of pH. Synthesis of an indoxyl bearing a sulfobetaine unit is illustrated in Scheme 6. Boc-piperazine (35) was treated with 1,3-propane sultone to afford 36 in 63% yield. Quaternization of the tertiary nitrogen atom in 36 with 3-bromopropanol gave Boc-protected sulfobetaine 37 in 69% yield. The Boc group was cleaved with trifluoroacetic acid (TFA) to afford piperazine-TFA salt 38 in 97% yield. The N-acetyl group of 32 was selectively deprotected with NaHCO3/MeOH in 84% yield. The product 39, piperazine-TFA salt 38, and BCN-amine 14 were assembled at a triazine ring via one-flask, successive substitution of cyanuric chloride to afford 40 in 51% yield. Cleavage of the acetyl groups of sulfobetaine 40 provided 41 in 98% yield.

tritosomes = assay: Indigoid dye formation with tritosomes; assay type: biochemical
Method: The results from the glucosidase survey prompted several further experiments. First, a parallel set of studies was carried out with inclusion of several oxidants commonly employed in histochemical studies, given that the indigoid dye forming process requires the presence of an oxidant. […] The activity of the β-glucosidase was affected only slightly in the presence of a non-ionic detergent. To verify that the results observed in Table 1 were reliable, a 5-mg scale reaction of 33 was carried out to isolate indigo 43, which was obtained in 66% yield (Scheme 7). The 66% isolated yield corresponded well with the enzymatic yield of […] (Table 1, entry 15).
General methods. β-Glucosidase from almonds (lyophilized powder, ≥2 units/mg solid) and peroxidase from horseradish were purchased from Sigma-Aldrich. β-Glucosidase from Agrobacterium sp. (recombinant, suspension in 3.2 M (NH4)2SO4) was purchased from Megazyme; the concentration in solution was determined by absorption spectroscopy with E^0.1%=2.20 cm^−1 at 280 nm.^37 Tritosomes were purchased from XenoTech. Rat liver homogenate was purchased from MP Biomedicals.

β-glucosidase = assay: Treatment of F-9 with β-glucosidase; assay type: biochemical; conditions: result in words
Method: Triazine-based A2BC architectures. Cyanuric chloride (F-8) was treated with 2 equiv of F-7 followed by tyramine to afford F-9 in 56% yield (Scheme 17). […] Treatment of N-(6-hydroxyhexyl)maleimide (F-10) (K. A. Keller, et al., Tetrahedron Lett., 2005, 46, 1181-1184. “A Thermally-Cleavable Linker for Solid-Phase Synthesis”) with cyanuric chloride (F-8) followed by F-9 in the presence of bases gave F-11 in 77% yield. […] While F-9 and F-11 were attractive from a synthetic standpoint given the ability to derivatize the 5-hydroxy group of the indoxyl unit without protection of the four hydroxy groups of the glucosyl unit, the reaction with a β-glucosidase was sine qua non in the molecular design. Accordingly, we moved to the design of a more suitable architecture.

| SMILES | Isolated yield of indigo 43 ([1]; 5-mg scale reaction of 33, acetate buffer pH 5.0, 37° C., 22 h) | Yield (%) β-glucosidase from almonds ([1]; as E1 but ϵ = 2.6 × 10^4 M^−1 cm^−1 measured for 43) | Yield of indigoid dye ([2]; pH 6-9, 3 h, in words) | Yield of indigoid dye ([2]; phosphate buffer pH 4, 3 h) | Yield of indigoid dye ([2]; phosphate buffer pH 5, 3 h) | Yield (%) β-glucosidase from Agrobacterium [2] | Yield (%) rat liver homogenate (rat liver homogenate) | Yield (%) β-glucosidase from Agrobacterium plus rat liver homogenate [3] | solubility [4] | Yield of indigoid dye with tritosomes (tritosomes) | Indigoid dye formation upon treatment with β-glucosidase (β-glucosidase) |
| --- | --- | --- | --- | --- | --- | --- | --- | --- | --- | --- | --- |
| OCCOCCOCCOc1c(Br)cc2[nH]cc(O[C@@H]3O[C@H](CO)[C@@H](O)[C@H](O)[C@H]3O)c2c1Br [Compound 33, 4,6-Dibromo-5-[1-hydroxy-3,6,9-trioxanon-9-yl]-1H-indol-3-yl β-D-glucopyranoside] | 66% | 52% and 52^g % | High to quantitative yields | 6% | 38% | 99% | < 5% | 81% | – | – | – |
| O=C(NCCOCCOCCNc1nc(OCCOCCOCCOc2c(Br)cc3[nH]cc(O[C@@H]4O[C@H](CO)[C@@H](O)[C@H](O)[C@H]4O)c3c2Br)nc(N2CC[N+](CCCO)(CCCS(=O)(=O)[O-])CC2)n1)OC[C@@H]1[C@@H]2CCC#CCC[C@@H]21 [Compound 41] | – | – | – | – | – | 106% and 106 ± 4^g % | – | – | > 400 µM | – | – |
| OC[C@H]1O[C@@H](Oc2c[nH]c3ccc(Oc4nc(NCCc5ccc(O)cc5)nc(Oc5ccc6[nH]cc(O[C@@H]7O[C@H](CO)[C@@H](O)[C@H](O)[C@H]7O)c6c5)n4)cc23)[C@H](O)[C@@H](O)[C@@H]1O [Compound F-9, 2,4-Bis[3-(β-D-glucopyranosyloxy)-1H-indol-5-yloxy]-6-[2-(4-hydroxyphenyl)ethylamino]-1,3,5-triazine] | – | – | – | – | – | – | – | – | – | ca. 4% | did not form the corresponding indigoid dye |
